Like-named read-outs stand apart in the source and are kept apart here.
How the values were obtained:
HEK293 [1] = details: cytotoxicity; cited from earlier work
BJ [2] = details: cytotoxicity; cited from earlier work
P. falciparum K1 strain [3] = details: chloroquine-resistant strain; cited from earlier work
Vero = details: cited from earlier work
[4] = system: L. donovani promastigotes; details: cited from earlier work
HepG2 [5] = details: cytotoxicity; cited from earlier work
A549 (Lung) [6] = details: cited from earlier work
P. falciparum 3D7 strain [7] = details: chloroquine-sensitive strain; cited from earlier work
RAJI [8] = details: cytotoxicity; cited from earlier work
HBL-100 (Breast) [9] = details: C18-congeners; cited from earlier work
[10] = system: L. infantum promastigotes; set-up: method as in PMID 30840453; details: C18-congeners, read-out: L. infantum IC50 ± SD; cited from earlier work
[11] = system: L. guyanensis promastigotes; set-up: method as in PMID 30840453; details: C18-congeners, read-out: L. guyanensis IC50 ± SD; cited from earlier work
WiDr (Colon) [12] = details: C18-congeners; cited from earlier work
HeLa (Cervix) [13] = details: C18-congeners; cited from earlier work
SW1573 (Lung) [14] = details: C18-congeners; cited from earlier work
Macrophages J774 [15] = details: read-out: Macrophages J774 CC50; C18-congeners; cited from earlier work
[16] = system: L. amazonensis amastigotes; set-up: method as in PMID 30840453; details: C18-congener, read-out: L. amazonensis IC50 ± SD; cited from earlier work
[17] = biological target: T1, GABAA receptor subtype (α1β2γ2S) (Homo sapiens, UniProt P14867+P18507+P47870); set-up: expressed in transfected cells; host or cells: Xenopus laevis oocytes; details: C18-congeners, cited from earlier work
T1 sequence (P14867 28-456): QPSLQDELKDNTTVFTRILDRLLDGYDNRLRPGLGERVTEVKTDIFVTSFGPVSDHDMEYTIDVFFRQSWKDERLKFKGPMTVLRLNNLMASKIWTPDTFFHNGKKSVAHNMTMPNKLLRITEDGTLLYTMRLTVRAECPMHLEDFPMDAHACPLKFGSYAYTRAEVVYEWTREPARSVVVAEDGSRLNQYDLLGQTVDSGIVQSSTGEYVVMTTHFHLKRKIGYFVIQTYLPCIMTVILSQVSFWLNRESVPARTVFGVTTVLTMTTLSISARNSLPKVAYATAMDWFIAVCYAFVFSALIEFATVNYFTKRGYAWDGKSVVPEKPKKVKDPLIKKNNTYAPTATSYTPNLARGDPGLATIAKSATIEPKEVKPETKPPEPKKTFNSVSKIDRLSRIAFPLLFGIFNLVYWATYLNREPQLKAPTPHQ
T1 sequence (P47870 26-512): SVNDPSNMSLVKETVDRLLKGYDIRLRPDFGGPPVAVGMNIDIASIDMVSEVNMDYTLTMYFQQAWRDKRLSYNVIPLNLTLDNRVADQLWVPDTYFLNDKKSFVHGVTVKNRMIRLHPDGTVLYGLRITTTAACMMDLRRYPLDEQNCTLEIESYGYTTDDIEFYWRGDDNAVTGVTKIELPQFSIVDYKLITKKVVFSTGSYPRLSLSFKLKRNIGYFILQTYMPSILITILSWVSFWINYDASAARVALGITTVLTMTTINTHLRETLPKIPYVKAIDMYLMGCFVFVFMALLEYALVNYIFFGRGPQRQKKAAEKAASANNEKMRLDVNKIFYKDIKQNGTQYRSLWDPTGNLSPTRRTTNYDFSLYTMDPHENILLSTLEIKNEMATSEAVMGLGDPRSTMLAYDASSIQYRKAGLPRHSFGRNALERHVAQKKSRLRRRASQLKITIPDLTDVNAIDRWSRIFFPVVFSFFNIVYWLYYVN
T1 sequence (P18507 40-467 isoform P18507-1 limits assumed): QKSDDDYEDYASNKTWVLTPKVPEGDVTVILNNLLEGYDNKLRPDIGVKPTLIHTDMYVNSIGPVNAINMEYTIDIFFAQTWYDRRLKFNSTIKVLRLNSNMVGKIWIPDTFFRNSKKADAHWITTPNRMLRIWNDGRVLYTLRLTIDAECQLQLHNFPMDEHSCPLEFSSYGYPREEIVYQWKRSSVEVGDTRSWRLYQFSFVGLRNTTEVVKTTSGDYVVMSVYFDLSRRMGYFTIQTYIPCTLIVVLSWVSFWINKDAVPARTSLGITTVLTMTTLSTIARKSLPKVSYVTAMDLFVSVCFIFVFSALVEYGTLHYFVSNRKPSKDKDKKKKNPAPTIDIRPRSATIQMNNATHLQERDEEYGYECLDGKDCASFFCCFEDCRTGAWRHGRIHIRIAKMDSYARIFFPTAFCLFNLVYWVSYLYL

L. infantum amastigotes [18] = system: L. infantum amastigotes; set-up: method as in PMID 30840453; details: C18-congener, read-out: L. infantum IC50 ± SD; cited from earlier work
[19] = system: L. amazonensis promastigotes; set-up: method as in PMID 30840453; details: C18-congeners, read-out: L. amazonensis IC50 ± SD; cited from earlier work
T-47D (Breast) [20] = details: C18-congeners; cited from earlier work
L. infantum amastigotes [21] = assay: Intracellular amastigote assay (fluorometric test); type: cell-based; details: Leishmania infantum, read-out: L. infantum IC50 ± SD
[22] = system: L. amazonensis promastigotes; assay: Antileishmanial in vitro promastigote assay; details: Leishmania amazonensis, read-out: L. amazonensis IC50 ± SD
Protocol: (§3) The compounds were additionally studied in a panel of mammalian cell lines to determine cytotoxicity.
(§4) The parasites, culture procedure and the activity of functionalized abietane analogs on Leishmania promastigotes were performed according to the method previously reported by us [28], while the intracellular amastigote assay was performed on L. amazonensis and L. infantum according to the fluorometric test [29]. The J774 cell culture and the cytotoxicity assay was carried out according to our previously described method [30].

[23] = system: L. amazonensis amastigotes; assay: Intracellular amastigote assay (fluorometric test); type: cell-based; details: Leishmania amazonensis, read-out: L. amazonensis IC50 ± SD
HeLa (Cervix) [24] = assay: Antiproliferative SRB assay; type: cell-based; details: Homo sapiens, mean ± SD of at least two experiments
Protocol: (§1) Cells, cultures and the activity test of abietane analogs followed reported methods. The SRB assay was performed as previously described, and the antiproliferative activity was given as GI50 values, which were calculated according to NCI formulas.

T-47D (Breast) [25] = assay: Antiproliferative SRB assay; type: cell-based; details: Homo sapiens, T47D, mean ± SD of at least two experiments
Protocol: as §1

HBL-100 (Breast) [26] = assay: Antiproliferative SRB assay; type: cell-based; details: Homo sapiens, mean ± SD of at least two experiments
Protocol: as §1

[27] = system: L. infantum promastigotes; assay: Antileishmanial in vitro promastigote assay; details: Leishmania infantum, read-out: L. infantum IC50 ± SD
Protocol: as §3, §4

[28] = system: L. donovani promastigotes; assay: Antileishmanial in vitro promastigote assay; details: Leishmania donovani, read-out: L. donovani IC50 ± SD
Protocol: as §3, §4

[29] = system: Leishmania promastigotes (L. donovani, L. infantum, L. guyanensis, L. amazonensis); assay: Antipromastigote activity over the tested Leishmania spp.; details: read-out: antipromastigote activity IC50 values (range over species)
Protocol: The parasites, culture procedure and the activity of functionalized abietane analogs on Leishmania promastigotes were performed according to the method previously reported by us [28], while the intracellular amastigote assay was performed on L. amazonensis and L. infantum according to the fluorometric test [29].

[30] = system: L. guyanensis promastigotes; assay: Antileishmanial in vitro promastigote assay; details: Leishmania guyanensis, read-out: L. guyanensis IC50 ± SD
Protocol: as §3, §4

in vitro = details: mouse, Macrophages J774 CC50
Protocol: as §3, §4

[31] = biological target: T1, GABAA receptor subtype (α1β2γ2S); assay: Two-microelectrode voltage-clamp in Xenopus laevis oocytes; details: for activation at 10 µM: read-out: IGABA Potentiation of 10 µM (%); for activation at 100 µM: read-out: IGABA Potentiation of 100 µM (%)
Protocol: All molecules were tested at concentrations of 10, 100 μM and compared with dehydroabietic acid (DHA) (3) as a reference [16].

RAJI [32] = assay: Cytotoxicity on mammalian cell lines; type: cell-based; details: Homo sapiens, read-out: RAJI EC50
Protocol: (§2) Assays were performed by using previously described DNA stain-based assay and methods, including cytotoxicity assays.

HEK293 [33] = assay: Cytotoxicity on mammalian cell lines; type: cell-based; details: Homo sapiens, HEK293; read-out: HEK293 EC50
Protocol: as §2

HepG2 [34] = assay: Cytotoxicity on mammalian cell lines; type: cell-based; details: Homo sapiens, HepG2; read-out: HepG2 EC50
Protocol: as §2

BJ [35] = assay: Cytotoxicity on mammalian cell lines; type: cell-based; details: Homo sapiens, read-out: BJ EC50
Protocol: as §2

Macrophages J774 [36] = details: mouse
Protocol: as §3, §4

A549 (Lung) [37] = assay: Antiproliferative SRB assay; type: cell-based, human; details: Homo sapiens, A549, mean ± SD of at least two experiments
Protocol: as §1

SW1573 (Lung) [38] = assay: Antiproliferative SRB assay; type: cell-based, human; details: Homo sapiens, SW1573, mean ± SD of at least two experiments
Protocol: as §1

WiDr (Colon) [39] = assay: Antiproliferative SRB assay; type: cell-based, human; details: Homo sapiens, WiDr, mean ± SD of at least two experiments
Protocol: as §1

P. falciparum 3D7 strain [40] = assay: Antiplasmodial DNA stain-based growth assay; type: cell-based; details: Plasmodium falciparum, 3D7; chloroquine-sensitive strain; 72 h incubation; read-out: P. falciparum 3D7 EC50
Protocol: as §2

P. falciparum K1 strain [41] = assay: Antiplasmodial DNA stain-based growth assay; type: cell-based; details: Plasmodium falciparum, K1; chloroquine-resistant strain; 72 h incubation; read-out: P. falciparum K1 EC50
Protocol: as §2

A549 cell line = system: A549 cell line; set-up: method as in doi:10.1016/j.phytol.2013.04.003; details: MTT method; cited from earlier work
[42] = system: human solid tumor cell lines HBL-100, A549, HeLa, T-47D, SW1573, WiDr; assay: Antiproliferative SRB assay, panel of six cell lines; type: cell-based; details: over the six solid tumor cell lines, read-out: GI50 (range over the cell lines)
Protocol: as §1

In the case of CC(C)c1cc2c(cc1O)[C@@]1(C)CCCC(C)(C)[C@@H]1CC2 [Compound 1, ferruginol], the EC50 (HEK293 [1]) is listed as greater than 25 µM, the EC50 (BJ [2]) is listed as 19.6 µM and the EC50 (P. falciparum K1 strain [3]) is listed as 1.33 µM. For the same compound, the CC50 (Vero) was greater than 16.6 µM, the IC50 ([4]; read-out: L. donovani IC50) was 12.2 µM and the EC50 (HepG2 [5]) was greater than 25 µM. The GI50 (A549 (Lung) [6]) was 30.7 ± 5.2 µM, the EC50 (P. falciparum 3D7 strain [7]) was 2.47 µM and the EC50 (RAJI [8]) was 11.5 µM.

For COC(=O)[C@]1(C)CCC[C@]2(C)c3cc(C(C)=O)c(C(C)C)cc3CC[C@@H]12 [Compound 9b], the GI50 (HBL-100 (Breast) [9]) is given as 15 ± 1.2 µM, the IC50 [10] is given as 2.5 ± 0.6 µM and the IC50 [11] is given as 14.2 ± 0.4 µM. The GI50 (WiDr (Colon) [12]) was 17 ± 2.4 µM, the GI50 (HeLa (Cervix) [13]) was 11 ± 1 µM and the GI50 (SW1573 (Lung) [14]) was 11 ± 4.6 µM. The CC50 (Macrophages J774 [15]) was 130 ± 8.9 µM, the IC50 ([4]; C18-congeners, read-out: L. donovani IC50 ± SD) was 14.8 ± 0.9 µM and the IC50 [16] was 31.4 ± 6.2 µM. The “IGABA Potentiation of 10 µM (%)” value ([17]; 10 µM) was 2.7 ± 0.9%, the “IGABA Potentiation of 100 µM (%)” value ([17]; 100 µM) was −2.9 ± 5.1% and the IC50 (L. infantum amastigotes [18]) was 37.2 ± 2.4 µM. For the same compound, the GI50 (A549 (Lung) [6]; C18-congeners) was 18 ± 2.3 µM, the IC50 [19] was 11.6 ± 0.6 µM and the GI50 (T-47D (Breast) [20]) was 10 ± 1.5 µM.

For CC(C)c1cc2c(cc1O)[C@@]1(C)CCC[C@](C)(C(=O)O)[C@@H]1CC2 [Compound 13, lambertic acid], the IC50 (L. infantum amastigotes [21]) was 19.2 ± 3.8 µM, the IC50 [22] was 51.5 ± 3.2 µM and the IC50 [23] was 8.8 ± 1.6 µM. The GI50 (HeLa (Cervix) [24]) was 29 ± 13 µM, the GI50 (T-47D (Breast) [25]) was 41 ± 8.4 µM and the GI50 (HBL-100 (Breast) [26]) was 34 ± 4.2 µM. The IC50 [27] was 29.1 ± 1.5 µM, the IC50 [28] was 12.8 ± 2.8 µM and the IC50 [29] was 12.8 to 51.5 µM. For the same compound, the IC50 [30] was 17.8 ± 1.2 µM, the CC50 (in vitro) was greater than 200 µM and the activation at 10 µM [31] was 3 ± 3%. It also gave an activation at 100 µM [31] of 71 ± 23%, an EC50 (RAJI [32]) greater than 25 µM and an EC50 (HEK293 [33]) greater than 25 µM. It also gave an EC50 (HepG2 [34]) greater than 25 µM, an EC50 (BJ [35]) greater than 25 µM and a CC50 (Macrophages J774 [36]) of 217 ± 34 µM. The “fold less cytotoxic than 12-hydroxydehydroabietic acid” value (Macrophages J774 [36]) was 2.5 fold, the GI50 (A549 (Lung) [37]) was 17 ± 6.1 µM and the GI50 (SW1573 (Lung) [38]) was 32 ± 8.9 µM. For the same compound, the GI50 (WiDr (Colon) [39]) was 59 ± 7.3 µM, the EC50 (P. falciparum 3D7 strain [40]) was greater than 15 µM and the EC50 (P. falciparum K1 strain [41]) was greater than 15 µM.

For CC(C)c1cc2c(cc1O)[C@@]1(C)CCC[C@](C)(CO)[C@@H]1CC2 [Compound 14, 19-hydroxyferruginol], the IC50 (A549 cell line) is listed as 14 µM, the GI50 (HeLa (Cervix) [24]) is listed as 3.1 ± 0.9 µM and the GI50 (T-47D (Breast) [25]) is listed as 12 ± 1.8 µM. The GI50 (HBL-100 (Breast) [26]) was 13 ± 1.6 µM, the CC50 (in vitro) was 51.9 ± 5.9 µM and the activation at 10 µM [31] was 64 ± 13%. The activation at 100 µM [31] was 507%, the EC50 (RAJI [32]) was greater than 25 µM and the EC50 (HEK293 [33]) was greater than 25 µM. The EC50 (HepG2 [34]) was greater than 25 µM, the EC50 (BJ [35]) was greater than 25 µM and the GI50 [42] was 1.8 to 13 µM. It also gave a GI50 (A549 (Lung) [37]) of 1.8 ± 0.4 µM, a GI50 (SW1573 (Lung) [38]) of 13 ± 1.3 µM and a GI50 (WiDr (Colon) [39]) of 13 ± 3.7 µM. For the same compound, the EC50 (P. falciparum 3D7 strain [40]) was greater than 15 µM and the EC50 (P. falciparum K1 strain [41]) was 11.6 µM.
